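Five compound concentrations were applied to cells in 96-well plates for 48 hours; endpoints were derived by simple linear interpolation of the resulting dose-response curve. At the TGI there is no net growth.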
Assays:
Assay in all cases: NCI anticancer screen, dose series, 48 h
HOP-62 NSCLC = test system: HOP-62 NSCLC
SF-295 CNS = test system: SF-295 CNS
NCI-H23 lung = test system: NCI-H23 lung
U251 CNS = test system: U251 CNS
K-562 leukemia = test system: K-562 leukemia
HL-60(TB) leukemia = test system: HL-60(TB) leukemia
HCT-116 colon = test system: HCT-116 colon
SNB-78 CNS = test system: SNB-78 CNS
M14 melanoma = test system: M14 melanoma
SW-620 colon = test system: SW-620 colon
COLO 205 colon = test system: COLO 205 colon
SF-268 CNS = test system: SF-268 CNS
HT29 colon = test system: HT29 colon
MALME-3M melanoma = test system: MALME-3M melanoma
OVCAR-5 ovarian = test system: OVCAR-5 ovarian
SK-MEL-28 melanoma = test system: SK-MEL-28 melanoma
HOP-92 NSCLC = test system: HOP-92 NSCLC
M19-MEL melanoma = test system: M19-MEL melanoma
EKVX NSCLC = test system: EKVX NSCLC
CAKI-1 renal = test system: CAKI-1 renal
XF 498 CNS = test system: XF 498 CNS
IGROV1 ovarian = test system: IGROV1 ovarian
TK-10 renal = test system: TK-10 renal
786-0 renal = test system: 786-0 renal
OVCAR-8 ovarian = test system: OVCAR-8 ovarian
SK-OV-3 ovarian = test system: SK-OV-3 ovarian
LXFL 529 NSCLC = test system: LXFL 529 NSCLC
DLD-1 colon = test system: DLD-1 colon
MOLT-4 leukemia = test system: MOLT-4 leukemia
SK-MEL-2 melanoma = test system: SK-MEL-2 melanoma
A549 NSCLC = test system: A549 NSCLC
SNB-75 CNS = test system: SNB-75 CNS
ACHN renal = test system: ACHN renal
SNB-19 CNS = test system: SNB-19 CNS
UACC-257 melanoma = test system: UACC-257 melanoma
SN12C renal = test system: SN12C renal
A498 renal = test system: A498 renal
UACC-62 melanoma = test system: UACC-62 melanoma
RPMI-8226 leukemia = test system: RPMI-8226 leukemia
UO-31 renal = test system: UO-31 renal
OVCAR-4 ovarian = test system: OVCAR-4 ovarian
KM12 colon = test system: KM12 colon
NCI-H226 lung = test system: NCI-H226 lung
CCRF-CEM leukemia = test system: CCRF-CEM leukemia
NCI-H522 lung = test system: NCI-H522 lung
SR leukemia = test system: SR leukemia
OVCAR-3 ovarian = test system: OVCAR-3 ovarian
NCI-H460 lung = test system: NCI-H460 lung
DMS 114 small cell lung = test system: DMS 114 small cell lung
RXF 393 renal = test system: RXF 393 renal
HCC-2998 colon = test system: HCC-2998 colon
LOX IMVI melanoma = test system: LOX IMVI melanoma
SK-MEL-5 melanoma = test system: SK-MEL-5 melanoma
HCT-15 colon = test system: HCT-15 colon
KM20L2 colon = test system: KM20L2 colon
HOP-18 NSCLC = test system: HOP-18 NSCLC
SF-539 CNS = test system: SF-539 CNS
DMS 273 small cell lung = test system: DMS 273 small cell lung

`O=C1OCCC1(Cc1ccc(Cl)cc1)Cc1ccc(Cl)cc1` was tested, and the TGI (HOP-62 NSCLC) was 89.2 µM, the TGI (SF-295 CNS) was over 100 µM and the TGI (NCI-H23 lung) was over 100 µM. The TGI (U251 CNS) was over 100 µM, the TGI (K-562 leukemia) was over 100 µM and the TGI (HL-60(TB) leukemia) was over 100 µM. The TGI (HCT-116 colon) was over 100 µM, the TGI (SNB-78 CNS) was over 100 µM and the TGI (M14 melanoma) was over 100 µM. For the same compound, the TGI (SW-620 colon) was over 100 µM, the TGI (COLO 205 colon) was over 100 µM and the TGI (SF-268 CNS) was over 100 µM. For the same compound, the TGI (HT29 colon) was over 100 µM, the TGI (MALME-3M melanoma) was over 100 µM and the TGI (OVCAR-5 ovarian) was over 100 µM. It also gave a TGI (SK-MEL-28 melanoma) of over 100 µM, a TGI (HOP-92 NSCLC) of 96.3 µM and a TGI (M19-MEL melanoma) of over 100 µM. It also gave a TGI (EKVX NSCLC) of over 100 µM, a TGI (CAKI-1 renal) of over 100 µM and a TGI (XF 498 CNS) of 43.3 µM. For the same compound, the TGI (IGROV1 ovarian) was over 100 µM, the TGI (TK-10 renal) was over 100 µM and the TGI (786-0 renal) was over 100 µM. For the same compound, the TGI (OVCAR-8 ovarian) was over 100 µM, the TGI (SK-OV-3 ovarian) was over 100 µM and the TGI (LXFL 529 NSCLC) was over 100 µM. For the same compound, the TGI (DLD-1 colon) was over 100 µM, the TGI (MOLT-4 leukemia) was over 100 µM and the TGI (SK-MEL-2 melanoma) was over 100 µM. The TGI (A549 NSCLC) was over 100 µM, the TGI (SNB-75 CNS) was 56.5 µM and the TGI (ACHN renal) was over 100 µM. For the same compound, the TGI (SNB-19 CNS) was over 100 µM, the TGI (UACC-257 melanoma) was over 100 µM and the TGI (SN12C renal) was over 100 µM. The TGI (A498 renal) was over 100 µM, the TGI (UACC-62 melanoma) was over 100 µM and the TGI (RPMI-8226 leukemia) was over 100 µM. For the same compound, the TGI (UO-31 renal) was over 100 µM, the TGI (OVCAR-4 ovarian) was over 100 µM and the TGI (KM12 colon) was over 100 µM. It also gave a TGI (NCI-H226 lung) of over 100 µM, a TGI (CCRF-CEM leukemia) of over 100 µM and a TGI (NCI-H522 lung) of over 100 µM. For the same compound, the TGI (SR leukemia) was over 100 µM, the TGI (OVCAR-3 ovarian) was over 100 µM and the TGI (NCI-H460 lung) was over 100 µM.

`C[C@@H](O)CCC(=O)c1ccoc1` showed a TGI (HOP-62 NSCLC) of over 100 µM, a TGI (DMS 114 small cell lung) of over 100 µM and a TGI (SF-295 CNS) of over 100 µM. For the same compound, the TGI (NCI-H23 lung) was over 100 µM, the TGI (U251 CNS) was over 100 µM and the TGI (K-562 leukemia) was over 100 µM. For the same compound, the TGI (HL-60(TB) leukemia) was over 100 µM, the TGI (HCT-116 colon) was over 100 µM and the TGI (SNB-78 CNS) was over 100 µM. For the same compound, the TGI (M14 melanoma) was over 100 µM, the TGI (SW-620 colon) was over 100 µM and the TGI (COLO 205 colon) was over 100 µM. The TGI (SF-268 CNS) was over 100 µM, the TGI (HT29 colon) was over 100 µM and the TGI (MALME-3M melanoma) was over 100 µM. The TGI (OVCAR-5 ovarian) was over 100 µM, the TGI (RXF 393 renal) was over 100 µM and the TGI (SK-MEL-28 melanoma) was over 100 µM. For the same compound, the TGI (HOP-92 NSCLC) was over 100 µM, the TGI (HCC-2998 colon) was over 100 µM and the TGI (M19-MEL melanoma) was over 100 µM. It also gave a TGI (EKVX NSCLC) of over 100 µM, a TGI (LOX IMVI melanoma) of over 100 µM and a TGI (CAKI-1 renal) of over 100 µM. For the same compound, the TGI (IGROV1 ovarian) was over 100 µM, the TGI (TK-10 renal) was over 100 µM and the TGI (786-0 renal) was over 100 µM. The TGI (OVCAR-8 ovarian) was over 100 µM, the TGI (SK-MEL-5 melanoma) was over 100 µM and the TGI (SK-OV-3 ovarian) was over 100 µM. The TGI (LXFL 529 NSCLC) was over 100 µM, the TGI (HCT-15 colon) was over 100 µM and the TGI (DLD-1 colon) was over 100 µM. For the same compound, the TGI (MOLT-4 leukemia) was over 100 µM, the TGI (SK-MEL-2 melanoma) was over 100 µM and the TGI (A549 NSCLC) was over 100 µM. For the same compound, the TGI (SNB-75 CNS) was over 100 µM, the TGI (ACHN renal) was over 100 µM and the TGI (SNB-19 CNS) was over 100 µM. The TGI (KM20L2 colon) was over 100 µM, the TGI (UACC-257 melanoma) was over 100 µM and the TGI (HOP-18 NSCLC) was over 100 µM. The TGI (SN12C renal) was over 100 µM, the TGI (SF-539 CNS) was over 100 µM and the TGI (A498 renal) was over 100 µM. For the same compound, the TGI (UACC-62 melanoma) was over 100 µM, the TGI (RPMI-8226 leukemia) was over 100 µM and the TGI (UO-31 renal) was over 100 µM. It also gave a TGI (OVCAR-4 ovarian) of over 100 µM, a TGI (DMS 273 small cell lung) of over 100 µM and a TGI (KM12 colon) of over 100 µM. It also gave a TGI (NCI-H226 lung) of over 100 µM, a TGI (CCRF-CEM leukemia) of over 100 µM and a TGI (NCI-H522 lung) of over 100 µM. It also gave a TGI (SR leukemia) of over 100 µM, a TGI (OVCAR-3 ovarian) of over 100 µM and a TGI (NCI-H460 lung) of over 100 µM.

Reference: PubChem BioAssay (NCI)
